Source: the NIST ThermoML archive (doi:10.1016/j.jct.2004.12.004)

Assay: mn = molality of the nth substance listed, in mol/kg
Settings: 350 kPa, Liquid, Extra sensitive DSC

OC[C@H]1O[C@@](CO)(O[C@H]2O[C@H](CO)[C@@H](O)[C@H](O)[C@H]2O)[C@@H](O)[C@@H]1O [D-sucrose] + O
apparent molar heat capacity [J/K/mol]
Settings | 323.15 K | 328.15 K | 333.15 K | 338.15 K | 343.15 K | 348.15 K | 353.15 K | 358.15 K | 363.15 K
m1 = 0.01461 | 722.3 | 735.7 | 746.9 | 756.6 | 765.9 | 774.3 | 781.7 | 791 | 797.3
m1 = 0.03048 | 722.4 | 735.3 | 746.6 | 757.3 | 766.2 | 775.2 | 783.6 | 791.1 | 797.3
m1 = 0.06172 | 723.4 | 735.9 | 747 | 757.4 | 766.8 | 775.7 | 784 | 791.9 | 798
m1 = 0.1302 | 723.1 | 735.3 | 746.5 | 756.8 | 766.3 | 775.1 | 783.3 | 791.1 | 797.4
m1 = 0.2486 | 723 | 735.1 | 746.2 | 756.4 | 766 | 774.7 | 783 | 790.6 | 797.1
m1 = 0.4969 | 722.6 | 734.6 | 745.4 | 755.6 | 765.2 | 774 | 782.2 | 789.8 | 796.6
m1 = 0.746 | 722 | 733.9 | 744.6 | 754.7 | 764.2 | 772.8 | 780.9 | 788.4 | 795.1
m1 = 0.9972 | 722.7 | 734.3 | 745 | 754.9 | 764.2 | 772.7 | 780.7 | 788.2 | 794.7
m1 = 1.489 | 721 | 732.5 | 742.9 | 752.7 | 762 | 770.4 | 778.3 | 785.7 | 792.3
m1 = 1.99 | 720.7 | 731.9 | 742.1 | 751.7 | 760.8 | 769.1 | 777 | 784.3 | 790.9
m1 = 2.99 | 720.3 | 730.9 | 740.7 | 750 | 759 | 767 | 774.6 | 781.7 | 788.1
m1 = 3.995 | 720.8 | 731.1 | 740.5 | 749.3 | 758 | 765.8 | 773.2 | 780 | 786.3
